According to PubChem BioAssay (NCI):
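These data come from cells grown in 96-well plates and exposed to compound for 48 hours at five concentrations. At the TGI there is no net growth.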

Assays:
Test in all cases: NCI-60 cell line screen, 48 h
SF-268 CNS = test system: SF-268 CNS
HT29 colon = test system: HT29 colon
MDA-MB-435 = test system: MDA-MB-435
OVCAR-3 ovarian = test system: OVCAR-3 ovarian
RPMI-8226 leukemia = test system: RPMI-8226 leukemia
HL-60(TB) leukemia = test system: HL-60(TB) leukemia
HOP-92 NSCLC = test system: HOP-92 NSCLC
IGROV1 ovarian = test system: IGROV1 ovarian
OVCAR-4 ovarian = test system: OVCAR-4 ovarian
OVCAR-8 ovarian = test system: OVCAR-8 ovarian
MOLT-4 leukemia = test system: MOLT-4 leukemia
CCRF-CEM leukemia = test system: CCRF-CEM leukemia
786-0 renal = test system: 786-0 renal
DU-145 prostate = test system: DU-145 prostate
SF-295 CNS = test system: SF-295 CNS
HCT-116 colon = test system: HCT-116 colon
UO-31 renal = test system: UO-31 renal
NCI/ADR-RES ovarian = test system: NCI/ADR-RES ovarian
MDA-MB-231 breast = test system: MDA-MB-231 breast
NCI-H23 lung = test system: NCI-H23 lung

Structure (SMILES)	TGI (SF-268 CNS)	TGI (HT29 colon)	TGI (MDA-MB-435)	TGI (OVCAR-3 ovarian)	TGI (RPMI-8226 leukemia)	TGI (HL-60(TB) leukemia)	TGI (HOP-92 NSCLC)	TGI (IGROV1 ovarian)	TGI (OVCAR-4 ovarian)	TGI (OVCAR-8 ovarian)	TGI (MOLT-4 leukemia)	TGI (CCRF-CEM leukemia)	TGI (786-0 renal)	TGI (DU-145 prostate)	TGI (SF-295 CNS)	TGI (HCT-116 colon)	TGI (UO-31 renal)	TGI (NCI/ADR-RES ovarian)	TGI (MDA-MB-231 breast)	TGI (NCI-H23 lung)
CC(C)C(NC(=O)C(Cc1ccccc1)NC(=O)[C@H]1CCC[C@H]1NC(=O)C(N)Cc1ccc(O)cc1)C(N)=O (stereo partly drawn)	> 100 µM	> 100 µM	> 100 µM	> 100 µM	> 100 µM	> 100 µM	> 100 µM	> 100 µM	> 100 µM	> 100 µM	> 100 µM	> 100 µM	> 100 µM	> 100 µM	> 100 µM	> 100 µM	> 100 µM	> 100 µM	> 100 µM	> 100 µM
CC(C)C(NCc1c(O)ccc2c(-c3ccccc3)cc(=O)oc12)C(=O)O (stereo not drawn)	> 100 µM	> 100 µM	> 100 µM	> 100 µM	> 100 µM	> 100 µM	> 100 µM	> 100 µM	> 100 µM	> 100 µM	> 100 µM	> 100 µM	> 100 µM	> 100 µM	> 100 µM	> 100 µM	> 100 µM	> 100 µM	> 100 µM	> 100 µM
CCc1n[nH]c(=O)n1CCO		> 100 µM	> 100 µM	> 100 µM	> 100 µM	> 100 µM	> 100 µM	> 100 µM	> 100 µM	> 100 µM	> 100 µM		> 100 µM	> 100 µM	> 100 µM	> 100 µM	> 100 µM	> 100 µM	> 100 µM	> 100 µM
Cc1cccc2c(=O)c3cccc([C@@H](C)C(=O)O)c3oc12	> 100 µM	> 100 µM	> 100 µM	> 100 µM	> 100 µM	> 100 µM	> 100 µM	> 100 µM	> 100 µM	> 100 µM	> 100 µM	> 100 µM	> 100 µM	> 100 µM	> 100 µM	> 100 µM	> 100 µM	> 100 µM	> 100 µM	> 100 µM
CC(=O)OCC(Br)C1(C)CCC(C(C)(C)Br)O1 (stereo not drawn)	> 100 µM	> 100 µM	> 100 µM	> 100 µM	> 100 µM	> 100 µM	> 100 µM	> 100 µM	72 µM		> 100 µM	> 100 µM	> 100 µM	> 100 µM	> 100 µM	> 100 µM	> 100 µM	> 100 µM	> 100 µM	> 100 µM
S=c1[nH]nc(NNc2ccccc2)n1Nc1ccccc1	> 100 µM	> 100 µM	> 100 µM	> 100 µM	> 100 µM	57.2 µM	> 79.9 µM	> 100 µM	> 100 µM	> 100 µM		42 µM	> 100 µM	> 100 µM	> 100 µM	> 100 µM	> 100 µM	> 100 µM	> 100 µM	> 100 µM
C=C(C)C12CC3CC/C(=N/O)C(C1)C3(N1CCOCC1)C/C2=N/O (stereo not drawn)	> 100 µM	> 100 µM	> 100 µM	> 100 µM	> 100 µM	> 100 µM	> 100 µM	> 100 µM	> 100 µM	> 100 µM	> 100 µM	> 100 µM	> 100 µM	> 100 µM	> 100 µM	> 100 µM	> 100 µM	> 100 µM	> 100 µM	> 100 µM
CC(=O)c1cc(C)n2c1CS[C@@H]2c1ccccc1	> 100 µM	> 100 µM	> 100 µM	> 100 µM	44 µM	> 100 µM	> 100 µM	> 100 µM	> 100 µM	> 100 µM	96.5 µM	60.9 µM	50.5 µM	93.6 µM	> 100 µM	> 100 µM	> 100 µM	> 100 µM	> 100 µM	> 100 µM
FC1=C2CCCCCC2SC1(F)F (stereo not drawn)	> 100 µM	> 100 µM	70.7 µM	> 100 µM	84.9 µM	33.9 µM	70.2 µM	> 100 µM	> 100 µM	> 100 µM	44.1 µM	18.7 µM	> 100 µM	> 100 µM	> 100 µM	> 100 µM	> 100 µM	> 100 µM	> 100 µM	> 100 µM
O=c1[nH]c2c(c(=O)[nH]1)SSC2	13.6 µM	40 µM	4.67 µM	38 µM	6.83 µM	32.6 µM	10.7 µM	56.8 µM	31.4 µM	10.2 µM	4.79 µM		17.5 µM	28.9 µM	36.6 µM	13.8 µM	24.2 µM	8.76 µM	5.15 µM	26.9 µM
O=C(CSC1=NNC2(C(=O)N1)c1ccccc1-c1ccccc12)NC(=S)Nc1ccccc1	> 10 µM	> 10 µM	> 10 µM		> 10 µM	> 10 µM	> 10 µM	> 10 µM	> 10 µM	> 10 µM	> 10 µM	> 10 µM	> 10 µM	> 10 µM	> 10 µM	> 10 µM	> 10 µM	> 10 µM	> 10 µM	> 10 µM
c1ccc(CC2(c3cc4ccccc4[nH]3)OCCO2)nc1	> 100 µM	> 100 µM	> 100 µM	> 100 µM	> 100 µM	> 100 µM	> 100 µM	> 100 µM		> 100 µM	> 100 µM	> 100 µM	> 100 µM	> 100 µM	> 100 µM	> 100 µM	> 100 µM	> 100 µM	> 100 µM	> 100 µM
